Reference: patent publication US11236055B2 (Venenum Biodesign, LLC, priority 2016, dated 2022)
pEC50: −log10 of the molar value.

System: GLP-1 levels in the blood of male C57BL/6NTac mice
Assay: In vivo mouse GLP-1 study, single oral dose
Conditions: 10 mg/kg oral, 4 h post-dose, sitagliptin 3 mg/kg pre-dose
Method: In Vivo Mouse GLP-1 Study
12-14 week old male C57BL/6NTac (Taconic) mice were divided into experimental groups (n=6) by randomizing mice based on pre-fasting body weight and then were fasted overnight. On experiment day, all mice were dosed with 3 mg/kg sitagliptin via oral gavage exactly 1 hour before oral gavage dosing of vehicle (0.5% carboxymethylcellulose (medium viscosity)+0.25% Tween-80) or 10 mg/kg compound in vehicle. Four (4) hours following the administration of compound, blood was collected via cardiac puncture. For the GLP-1 assay, 200-250 μL of blood was placed in an EDTA K^2+ tube containing 5 μL of 40 mg/mL aprotinin (Sigma A1153) and 1 μL of 10 mM sitagliptin (Sigma S8576) and plasma was separated by centrifugation. Plasma samples were stored at −20° C. until analysis. The active form of GLP-1 [GLP-1 (7-36) amide] was analyzed using Meso Scale Discovery System according to the manufacturer's directions (item number K150HYC). Values of p<0.05 are considered statistically significant.
The active GLP-1 assay results from the mice in vivo study are shown in Table 36 and FIG. 1, expressed as fold change over vehicle.

SMILES | Fold Increase (active GLP-1, fold change over vehicle)
CCc1cnccc1-c1cccc(C(C)(C)N(CCCC(=O)NCCS(=O)(=O)O)S(=O)(=O)c2cccc(Cl)c2C)c1 [Compound 20AC, 2-(4-(3-chloro-N-(2-(3-(3-ethylpyridin-4-yl)phenyl)propan-2-yl)-2-methylphenylsulfonamido)butanamido)ethanesulfonic acid] | 1.2
CCc1cnccc1-c1cccc([C@H](C)N(CCCC(=O)NCCS(=O)(=O)NCC(=O)O)S(=O)(=O)c2ccccc2C(F)(F)F)c1 [Compound 20BG] | 4.4
CCc1cnccc1-c1cccc([C@H](C)N(CCCC(=O)NCCS(=O)(=O)O)S(=O)(=O)c2ccccc2C(F)(F)F)c1 [Compound 20BF, (S)-2-(4-(N-(1-(3-(3-ethylpyridin-4-yl)phenyl)ethyl)-2-(trifluoromethyl)phenylsulfonamido)butanamido)ethanesulfonic acid] | 2.9
CCc1cnccc1-c1cccc([C@H](C)N(CCCC(=O)NCCS(=O)(=O)NCC(=O)O)S(=O)(=O)c2cccc(Cl)c2C)c1 [Compound 21AT, (S) 2-(3-(4-(3-chloro-2-methyl-N-(1-(3-(3-ethylpyridin-4-yl)phenyl)ethyl)phenylsulfonamido)butanamido)ethylsulfonamido)acetic acid] | 4.2
Cc1cnccc1-c1cccc(C(C)(C)N(CCCC(=O)NCCCS(=O)(=O)O)S(=O)(=O)c2cccc(Cl)c2C)c1 [Compound 20AD, 3-(4-(3-chloro-2-methyl-N-(2-(3-(3-methylpyridin-4-yl)phenyl)propan-2-yl)phenylsulfonamido)butanamido)propane-1-sulfonic acid] | 1.9
CCc1cnccc1-c1cccc(C(C)(C)N(CCCC(=O)NCCS(=O)(=O)O)S(=O)(=O)c2ccccc2C(F)(F)F)c1 [Compound 20, 2-(4-(N-(2-(3-(3-ethylpyridin-4-yl)phenyl)propan-2-yl)-2-(trifluoromethyl)-phenylsulfonamido)butanamido)ethanesulfonic acid] | 1.0
Cc1cnccc1-c1cccc([C@H](C)N(CCCC(=O)NCCS(=O)(=O)NCCCC(=O)O)S(=O)(=O)c2ccccc2C(F)(F)F)c1 [Compound 20BK] | 1.3
Cc1cnccc1-c1cccc(C(C)(C)N(CCCC(=O)NC[C@@H](O)[C@H](O)[C@@H](O)[C@@H](O)CO)S(=O)(=O)c2cccc(Cl)c2C)c1 [Compound 20AF, 4-(3-chloro-2-methyl-N-(2-(3-(3-methylpyridin-4-yl)phenyl)propan-2-yl)phenylsulfonamido)-N-((2R,3S,4S,5S)-2,3,4,5,6-pentahydroxyhexyl)butanamide] | 0.8
Cc1cnccc1-c1cccc([C@H](C)N(CCCCC(=O)NCCS(=O)(=O)NCC(=O)O)S(=O)(=O)c2ccccc2C(F)(F)F)c1 [Compound 20BL, (S) 2-(4-(N-(1-(3-(3-methylpyridin-4-yl)phenyl)ethyl)-2-(trifluoromethyl)phenylsulfonamidopentanamido)ethylsulfonamido)acetic acid] | 2.1
CCc1cnccc1-c1cccc([C@H](C)N(CCCC(=O)NCCCS(=O)(=O)O)S(=O)(=O)c2cccc(Cl)c2C)c1 [Compound 20AM, (S)-3-(4-(3-chloro-N-(1-(3-(3-ethylpyridin-4-yl)phenyl)ethyl)-2-methylphenylsulfonamido)butanamido)propane-1-sulfonic acid] | 2.3
Cc1cnccc1-c1cccc(C(C)(C)N(CCCC(=O)NCCS(=O)(=O)NCC(=O)O)S(=O)(=O)c2cccc(Cl)c2C)c1 [Compound 20AW, (4-(3-chloro-2-methyl-N-(2-(3-(3-methylpyridin-4-yl)phenyl)propan-2-yl)phenylsulfonamido)-N-butanamidoethylsulfonamido)acetic acid] | 1.1
Cc1cnccc1-c1cccc(C(C)(C)N(CCCC(=O)NCCS(=O)(=O)O)S(=O)(=O)c2ccccc2C(F)(F)F)c1 [Compound 20AA, 2-(4-(N-(2-(3-(3-methylpyridin-4-yl)phenyl)propan-2-yl)-2-(trifluoromethyl)phenylsulfonamido)butanamido)ethanesulfonic acid] | 3.3
CCc1cnccc1-c1cccc([C@H](C)N(CCCC(=O)NCCS(=O)(=O)O)S(=O)(=O)c2cccc(Cl)c2C)c1 [Compound 21AQ, (S)-2-(4-(3-chloro-N-(1-(3-(3-ethylpyridin-4-yl)phenyl)ethyl)-2-methylphenylsulfonamido)butanamido)ethanesulfonic acid] | 2.0
Cc1cnccc1-c1cccc(C(C)(C)N(CCCC(=O)NCC(=O)O)S(=O)(=O)c2cccc(Cl)c2C)c1 [Compound 21AB, 2-(4-(3-chloro-2-methyl-N-(2-(3-(3-methylpyridin-4-yl)phenyl)propan-2-yl)phenylsulfonamido)butanamido)acetic acid] | 3.0

Target: T1, mouse TGR5 receptor (Mus musculus, UniProt Q80SS6)
T1 construct: expressed in transfected cells; host or cells: HEK293-EBNA (293 c18, ATCC CRL10852), Hygromycin B selection
T1 sequence (Q80SS6 1-329): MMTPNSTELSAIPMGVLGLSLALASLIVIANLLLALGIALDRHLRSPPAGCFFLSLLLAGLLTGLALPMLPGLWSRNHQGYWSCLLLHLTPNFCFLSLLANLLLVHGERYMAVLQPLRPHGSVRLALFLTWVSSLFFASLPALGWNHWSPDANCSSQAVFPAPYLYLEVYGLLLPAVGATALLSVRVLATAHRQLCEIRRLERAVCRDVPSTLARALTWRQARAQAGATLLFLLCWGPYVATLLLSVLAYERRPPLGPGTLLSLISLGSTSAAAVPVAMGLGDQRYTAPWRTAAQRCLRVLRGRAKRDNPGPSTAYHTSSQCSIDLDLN
Assay: Mouse TGR5 cAMP production assay (luminescent, DiscoveRx cAMP XS+)
Assay type: cell-based
Conditions: HEK293-EBNA cells overexpressing mouse TGR5, luminescent cAMP XS+; coded A-D; read-out: Mouse TGR5 Lum. cAMP Activity (EC50)
Outline: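 HEK293-EBNA cells stably expressing mouse TGR5 were suspended in serum-free DMEM with 500 μM IBMX and preincubated 20 min with cAMP antibody. They were then exposed to half-log compound dilutions for 1 h at room temperature. cAMP measured by enzyme-fragment complementation luminescence after overnight incubation; EC50 derived.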

SMILES | pEC50
CCc1cnccc1-c1cccc(C(C)(C)NS(=O)(=O)c2ccccc2C(F)(F)F)c1 [Compound 5, N-(2-(3-(3-ethylpyridin-4-yl)phenyl)propan-2-yl)-2-(trifluoromethyl)benzenesulfonamide] | > 7.00
Cc1cnccc1-c1cccc(C(C)(C)NS(=O)(=O)c2cccc(C(F)(F)F)c2)c1 [Compound 5AA, N-(2-(3-(3-methylpyridin-4-yl)phenyl)propan-2-yl)-3-(trifluoromethyl)benzenesulfonamide] | > 7.00

System: DIO mice
Assay: Food intake after multiple days of dosing in DIO mice
Assay type: in vivo, mouse
Conditions: DIO mice on high fat diet, oral BID for 12 days
Method: Monitoring of Food Intake after Multiple Days of Dosing Compounds
Compounds of the present invention were dosed for multiple days and were evaluated for their ability to cause mice to have a lower food intake. Mice were dosed compounds for 12 days as per the protocol in Example 66.
The HFD (Research Diets, D12492, 60% fat kcal) is placed at the bottom of the cage of a singly-housed animal. The remaining food in each cage is recovered and weighed again at the same time of day 3 or 4 days later. The difference in the starting and ending food weight represents the amount of food consumed. Daily food intake is calculated by averaging over a 3 or 4 day period every week.

SMILES | food intake
CCc1cnccc1-c1cccc([C@H](C)N(CCCC(=O)NCCS(=O)(=O)NCC(=O)O)S(=O)(=O)c2ccccc2C(F)(F)F)c1 [Compound 20BG] | no significant effect

System: DIO mice
Assay: Weight loss after multiple days of dosing in DIO mice
Assay type: in vivo, mouse
Conditions: DIO mice on high fat diet, oral BID for 12 days
Method: Monitoring of Weight Loss after Multiple Days of Dosing Compounds
Compounds of the present invention were dosed for multiple days and were evaluated for their ability to cause mice to lose weight. In the next series of studies (Examples 66-70), Male DIO mice were received at 12 weeks of age (from Taconic), and were single-housed at the testing facility and acclimated for at least 2 weeks. The mice were provided a high fat diet [Research Diet D12492 (60% Fat kcal)] while in the testing facility. Before the study initiation, the animals were randomized into 5 experimental groups by body weight. The vehicle group contained only 0.5% carboxymethylcellulose (medium viscosity)+0.25% Tween-80. The second group contained 10 mg/kg of the DPP-IV inhibitor Linagliptin while the third group contained 10 mg/kg Compound 20BG. The fourth group contained the combination of 10 mg/kg Linagliptin and 10 mg/kg Compound 20BG. The fifth group was the positive control for weight loss, Liraglutide. All mice, except the Liraglutide group, were dosed BID at approximately 6:00 am and again at approximately […]. The positive control liraglutide was administered at a dose of 0.2 mg/kg subcutaneously in the afternoon.
Compounds of the present invention were evaluated for their ability to cause mice to lose weight. Mice were dosed compounds for 12 days and body weights were recorded twice a week.

SMILES | body weight change
CCc1cnccc1-c1cccc([C@H](C)N(CCCC(=O)NCCS(=O)(=O)NCC(=O)O)S(=O)(=O)c2ccccc2C(F)(F)F)c1 [Compound 20BG] | modest weight loss
